Tests used:
Rattus norvegicus [1] = species: Rattus norvegicus; conditions: in vivo, ip
Description: Toxicity in ip dosed Sprague-Dawley rat assessed as catalepsy by Bar test

Rattus norvegicus [2] = species: Rattus norvegicus; conditions: in vivo, ip; remark: listed apart in the source
Description: Toxicity in ip dosed Sprague-Dawley rat assessed as catalepsy by crossed-legs position test

Compound | MED (Rattus norvegicus [1]) [mg/kg] | MED (Rattus norvegicus [2]) [mg/kg]
OC1(c2ccc(Cl)cc2)CC2CCC(C1)N2CCCSc1ccc(F)cc1 (centres undefined) | 0.578 | 0.964
OC1(c2ccc(Cl)cc2)CC2CCC(C1)N2CCCSc1cccc(F)c1 (centres undefined) | 12.7 | 12.7
